According to PMC9515143, “Phosphorylation of Jhd2 by the Ras-cAMP-PKA(Tpk2) pathway regulates histone modifications and autophagy” (Nature Communications, 2022):

Columns and labels:
[1] = tested on: H2Bub; experiment: Western blot of H2B monoubiquitination (H2Bub) after glucose; type: cell-based, budding yeast (Saccharomyces cerevisiae); details: for H2Bub/H2B: 0.5 hr
Experimental: (§1) To examine the effect of glucose on histone modifications, yeast cells were grown in 2% glucose-containing YPD (Yeast Extract Peptone Dextrose) medium until OD600 of 0.7–1.0. Cells were then collected, washed and resuspended in YP medium for 3 hr followed by treatment with different concentrations of glucose for 0.5 hr. For 1NM-PP1 (MCE, HY-13804) treatment, cells were grown in 2% YPD until OD600 of 0.7–1.0. Cells were then treated with 25 μM 1NM-PP1 for 0.5 hr. For FBP and pyruvate treatment, cells were pre-treated with Zymolase (Mpbio, 08320921) to increase the permeability. In brief, cells were grown in YPD medium until OD600 of 0.7–1.0, centrifuged and resuspended in 1 ml SB buffer (100 mM Sorbitol, 20 mM Tris pH 7.4). 10 μl Zymolase was then added and incubated at 30 °C for 15 min. The spheroplasts were washed and cultured in YPD medium containing different concentrations of FBP and pyruvate for 3 hr.
(§2) Cells were grown in 5 ml YPD or selective medium until OD600 of 0.7–1.0. Cells were harvested and lysed in alkaline lysis buffer (2 M NaOH, 8% 2-mercaptoethanol). After centrifugation, the protein pellet was resuspended in 150 μl 2×SDS-sample buffer. Protein samples were separated by 8–15% SDS-PAGE and transferred to PVDF membrane. The blots were probed with primary antibodies followed by incubation with horseradish peroxidase-labelled IgG secondary antibodies. The protein bands were visualized using the ECL Chemiluminescence Detection Kit (Bio-Rad, 170–5061) and quantified with Image J software (v.1.8.0).
Supplementary Fi g . […] WT (a) and H2B-F LA G cel ls (b) wer e grown in YPD medium until OD600 of 0.7.
Cells were th en tr eat ed with YP medium supplement ed with differen t concentrations of glucos e for 0.5 hr. C ells were h ar vested an d the ex tract ed histones w er e anal yz ed by Western blots with indicat ed ant ibodies. To d et ect H2B monoubiquitination, H2B-F LAG strain w as used and d et ect ed with anti -F LAG ant ibody. Th e upper bands ar e monoubiquitinat ed H2B-F LAG. c E ff e c t of gl ucose on histone modifications in WT and ubp8∆ ubp10∆ mutant. WT and ubp8∆ ubp10∆ mut ant w er e gro wn in YPD medium unti l OD600 of 0.7. Cells wer e th en treated with YP medium supplem ent ed with di fferent con cen tr ations of gl u cos e fo r 0.5 hr. d Gluco se has no effect on the activit y of C O M PA S S . Spp1-TA P cells wer e grown in YPD medium until OD600 of 1.5. Cells were h arv est ed and then treat ed with YP + 0.05% glucos e and YP + 4% gl u cos e for 0.5 hr. Spp1-cont aining COMPASS (Spp1-CBP ) was then p urifi ed by tand em affinit y puri fi cati on ( TA P ) . Th e in vitro hi stone meth yltransferase assa y was p er form ed wit h purifi ed C O M PA S S and in vitro assembl ed nucl eosom es. e E ff e c t of the m TO R pathwa y on H3K4 meth ylation. […]
For Supplem ent ar y Fi g. 1b, e-g, i-k, d at a r ep res ent means ± SEM; n=3 i ndependent ex perim ents. For Supplem entar y Fi g. 1c, d ata represent means ± SEM; n=4 independent ex periments. Tw o -sided t-tests were used for statistical analysis.

[2] = tested on: H3K79me3; experiment: ChIP-qPCR of H3K79me3/H3 (rebuttal); type: cell-based, budding yeast (Saccharomyces cerevisiae); details: 0.05% versus 2% glucose
[3] = tested on: H3K4me1 and H3K4me2; experiment: Western blot of H3K4me1 and H3K4me2 in yeast cells treated with glucose; type: cell-based, budding yeast (Saccharomyces cerevisiae); details: WT cells, different glucose concentrations, 0.5 hr
Experimental: (§3) To examine the effect of glucose on histone modifications, we grew yeast cells in 2% glucose-containing medium (YPD) until log phase. Cells were collected and then grown in the medium containing different concentrations of glucose for 0.5 hr.
as §1
Cells were grown in 5 ml YPD or selective medium until OD600 of 0.7–1.0. […] The protein bands were visualized using the ECL Chemiluminescence Detection Kit (Bio-Rad, 170–5061) and quantified with Image J software (v.1.8.0).

[4] = tested on: H3K4me3; experiment: Western blot of H3K4 methylation in mutants; type: cell-based, budding yeast (Saccharomyces cerevisiae)
Experimental: as §2

[5] = tested on: H3K4me3; experiment: Western blot of H3K4me3 in yeast cells treated with glucose, 2-DG, FBP or pyruvate; type: cell-based, budding yeast (Saccharomyces cerevisiae); details: WT cells, YP medium with different glucose concentrations, 0.5 hr
Source text: as §3
PKA is activated by cyclic AMP (cAMP), which binds to its inhibitory subunit, Bcy1 and causes its dissociation (Fig. 1g). We thus examined H3K4me3 in deletion mutants of cAMP phosphodiesterases PDE1 and PDE2, which encode enzymes to hydrolyze cAMP and inactivate PKA[39],[40]. […] To test whether the Ras-cAMP-PKA pathway mediates glucose-induced H3K4me3, we examined H3K4me3 in ras1Δ and ras2Δ mutants. […] Ras1/2 can be activated by glycolysis-derived fructose-1,6-biphosphate (FBP) via Cdc25[6] (Fig. 1g).
as §1, §2

[6] = tested on: H3K14ac; experiment: Western blot of H3K14ac (glucose, mutants); type: cell-based, budding yeast (Saccharomyces cerevisiae)
Experimental: as §1
as §2, with “The blots were probed with primary antibodies followed by incubation with horseradish peroxidase-labelled IgG secondary antibodies.” left out

[7] = tested on: Jhd2; experiment: In vitro demethylase assay, Jhd2 purified from cells grown in increasing glucose; type: biochemical, budding yeast (Saccharomyces cerevisiae); details: Jhd2 from cells grown in 0.05%, 0.5%
Experimental: We also purified unphosphorylated Jhd2 from tpk2Δ mutant (Jhd2 tpk2Δ) and performed in vitro demethylase assay. […] We also treated WT Jhd2 with λ phosphatase to remove its phosphorylation and then used this dephosphorylated Jhd2 for in vitro demethylase assay. […] Furthermore, we purified Jhd2 from cells grown in increasing glucose concentrations (0.05%, 0.5%, 2%) and performed in vitro demethylase assay.
The reaction was quenched by adding 2×SDS-PAGE loading buffer and incubated at 95 °C for 10 min. Samples were spotted to PVDF membrane followed by dot blots with indicated antibodies.

For `OC[C@H]1OC(O)[C@H](O)[C@@H](O)[C@@H]1O` (stereo partly drawn) [glucose], which H2Bub/H2B ([1]; 0.5% glucose, relative to 0.05% glucose = 1, replicate 1) is on record?
The H2Bub/H2B was 1.541.

What about the H2Bub/H2B ([1]; 0.5% glucose, relative to 0.05% glucose = 1, replicate 2) of the same molecule?
Its H2Bub/H2B is 1.389.

What about the H2Bub/H2B ([1]; 0.5% glucose, relative to 0.05% glucose = 1, replicate 3) of the same molecule?
The H2Bub/H2B was 1.9778.

What about the H2Bub/H2B ([1]; 1% glucose, relative to 0.05% glucose = 1, replicate 1) of the same molecule?
Its H2Bub/H2B is 1.812.

What about the H2Bub/H2B ([1]; 1% glucose, relative to 0.05% glucose = 1, replicate 2) of the same molecule?
Its H2Bub/H2B is 3.264.

What about the H2Bub/H2B ([1]; 1% glucose, relative to 0.05% glucose = 1, replicate 3) of the same molecule?
The H2Bub/H2B was 4.024.

What about the H2Bub/H2B ([1]; 2% glucose, relative to 0.05% glucose = 1, replicate 1) of the same molecule?
Its H2Bub/H2B is 2.484.

And the H2Bub/H2B ([1]; 2% glucose, relative to 0.05% glucose = 1, replicate 2)?
Its H2Bub/H2B is 4.332.

And the H2Bub/H2B ([1]; 2% glucose, relative to 0.05% glucose = 1, replicate 3)?
The H2Bub/H2B was 3.575.

What about the H2Bub/H2B ([1]; 4% glucose, relative to 0.05% glucose = 1, replicate 1) of the same molecule?
Its H2Bub/H2B is 3.885.

What about the H2Bub/H2B ([1]; 4% glucose, relative to 0.05% glucose = 1, replicate 2) of the same molecule?
Its H2Bub/H2B is 5.306.

What about the H2Bub/H2B ([1]; 4% glucose, relative to 0.05% glucose = 1, replicate 3) of the same molecule?
The H2Bub/H2B was 5.56.

And the H2Bub level ([1]; H2B-FLAG cells, glucose 0.5 hr, Western blot)?
The H2Bub level was “induced H2Bub”.

And the “H3K79me3 occupancy at PAU8, DRS2 and ATG5” value [2]?
Its value is “glucose significantly increased H3K79me3 at H2Bub-dependent genes (PAU8, DRS2)”.

And the “H3K4me1 and H3K4me2 level” value [3]?
Its value is “had no effect on H3K4me1 and H3K4me2”.

And the “H3K4me3 level in chd1Δ mutant” value ([4]; chd1Δ, different glucose concentrations, 0.5 hr, Western blot (rebuttal))?
The value was “glucose-induced”.

What about the “H3K4me3 level, WT versus tpk2Δ” value ([4]; increasing glucose concentrations, Western blot) of the same molecule?
Its value is “induced H3K4me3 in WT but not tpk2Δ mutant”.

And the H3K4me3 level [5]?
Its H3K4me3 level is “induced H3K4me3 in a dose-dependent manner”.

And the H3K14ac level ([6]; WT cells, glucose 0.5 hr)?
Its H3K14ac level is “induced H3K14ac”.

What about the “H3K14ac level, WT versus Jhd2-S321A, S340A and tpk2Δ” value ([6]; glucose) of the same molecule?
Its value is “increased in response to glucose in WT but not in Jhd2-S321A, S340A and tpk2Δ mutants”.

And the “phosphorylation level and demethylase activity of Jhd2 purified from cells in 2% glucose versus 0.05% glucose” value [7]?
Its value is “higher phosphorylation level but lower demethylase activity”.
